One assay concerns the target T1, human RET kinase (Homo sapiens, UniProt P07949).
T1 construct: purchased Carna 08-159
The assay is described as follows: RET Kinase Assay (LanthaScreen TR-FRET enzymatic assay). Format: biochemical. The settings on record: 7 nM RET, 23 μM ATP. On the procedure: Compounds were tested in a LanthaScreen™ time-resolved fluorescence energy transfer (TR-FRET) enzymatic assay from Invitrogen. The assay used human RET kinase (Carna 08-159). Test compounds were prepared and diluted in DMSO in 3-fold serial dilutions to 50× of the final testing concentrations. The compounds were then further diluted to 5× by the kinase reaction buffer (50 mM HEPES pH 7.5, 0.0015% Brij-35). The enzymatic reaction for compound testing was performed in a white 384-well polypropylene plate (Corning 3573) with a total reaction volume of 25 μl containing 7 nM RET, 3 μM peptide substrate FAM-P2 (GL Biochem 112394), and 23 μM ATP (Sigma A7699-1G). The assay started with loading RET diluted in kinase reaction buffer to wells, followed by addition of equal volume of 5× compounds for 15-min incubation at the room temperature for pre-treatment. The enzymatic reaction was initiated by addition of mixture of the substrate and ATP prepared in kinase reaction buffer. After incubation at 28° C. for one hour, 25 μl of stopper buffer (a mixture of 100 mM HEPES pH 7.5 buffer, 0.015% Brij-35, 50 mM EDTA and 0.2% of coating reagent 3 (Cliper Lifesciences)) and produce TR-FRET signals. After 30 minutes of incubation at room temperature, the plate was read in a Caliper with the following settings: Excitation 340 nm (30)/Emission1 495 nm (10)/Emission2 520 nm (25). The TR-FRET values were dimensionless numbers that were calculated as the ratio of the acceptor ([…]) signal to the donor (Terbium) signal. Percent of control was calculated as the percentage of compound-treated vs 1% DMSO vehicle-treated. The dose-response curves were generated and the IC50s were calculated by nonlinear sigmoid curve fitting using XLFit.

The next assay addresses T2, human KDR kinase (Homo sapiens, UniProt P35968).
T2 construct: purchased Carna 08-191
The assay is described as follows: KDR Kinase Assay (LanthaScreen TR-FRET enzymatic assay). Format: biochemical. Conditions: 1.2 nM KDR, 92 μM ATP. On the procedure:
Compounds were tested in a LanthaScreen™ time-resolved fluorescence energy transfer (TR-FRET) enzymatic assay from Invitrogen. The assay used human KDR kinase (Carna 08-191). Test compounds were prepared and diluted in DMSO in 3-fold serial dilutions to 50× of the final testing concentrations. The compounds were then further diluted to 5× by the kinase reaction buffer (50 mM HEPES pH 7.5, 0.0015% Brij-35). The enzymatic reaction for compound testing was performed in a white 384-well polypropylene plate (Corning 3573) with a total reaction volume of 25 μl containing 1.2 nM KDR, 3 μM peptide substrate FAM-P22 (GL Biochem 112393), and 92 μM ATP (Sigma A7699-1G). The assay started with loading RET diluted in kinase reaction buffer to wells, followed by addition of equal volume of 5× compounds for 15-min incubation at the room temperature for pre-treatment. The enzymatic reaction was initiated by addition of mixture of the substrate and ATP prepared in kinase reaction buffer. After incubation at 28° C. for one hour, 25 μl of stopper buffer (a mixture of 100 mM HEPES pH 7.5 buffer, 0.015% Brij-35, 50 mM EDTA and 0.2% of coating reagent 3 (Cliper Lifesciences)) and produce TR-FRET signals. After 30 minutes of incubation at room temperature, the plate was read in a Caliper with the following settings: Excitation 340 nm (30)/Emission1 495 nm (10)/Emission2 520 nm (25). The TR-FRET values were dimensionless numbers that were calculated as the ratio of the acceptor ([…]) signal to the donor (Terbium) signal. Percent of control was calculated as the percentage of compound-treated vs 1% DMSO vehicle-treated. The dose-response curves were generated and the IC50s were calculated by nonlinear sigmoid curve fitting using XLFit.

The next assay has as its system TT cells. Description: TT Cell Proliferation Assay (WST-8, 8 days). The settings on record: Homo sapiens, TT, 192 h, growth inhibition in TT cells, read-out: TT Cellular Activity. The class given is cell-based. As for the experimental part: Compounds disclosed herein were tested for the inhibition of RET by a cancer cell proliferation assay commonly known as MTT assay. In this assay, a complete media was prepared by adding 10% fetal bovine serum to RPMI-1640 medium (Life technology). TT cells were added to each of 88 wells of a 96 well plate at a seeding density of 6,000 cells/well/90 μL. The cells were allowed to attach to the plate by incubating at 37° C. for 24 hours. The compound was dissolved in DMSO (SIGMA). A solution of test compound was prepared in complete media by serial dilution to obtain the following concentrations: 50 μM, 15 μM, 5 μM, 1.5 μM, 0.5 μM, 0.15 μM, 0.05 μM, 0.015 μM and 0.005 μM. The test compound solution (10 μL) was added to each of 80 cell-containing wells. The final concentrations of the compound were following: 5 μM, 1.5 μM, 0.5 μM, 0.15 μM, 0.05 μM, 0.015 μM, 0.005 μM, 0.0015 μM and 0.0005 μM. The final concentration of DMSO is 0.5%. To the 8 remaining cell-containing wells, only complete media (containing 0.5% DMSO) was added to form a control group in order to measure maximal proliferation. To the remaining 8 empty wells, complete media was added to for a vehicle control group in order to measure background. The plates were incubated at 37° C. for 8 days. 10 μL WST-8 solution (DOJINDO, Cell Counting KIT-8) was added to each well. The plates were further incubated at 37° C. for 5 hours, and then read for the absorbance using a microplate reader at 450 nm. The IC50 was calculated using GraphPad Prism.

This passage reports IC50 results from US20220220128A1, “HETEROCYCLIC COMPOUNDS AS KINASE INHIBITORS, COMPOSITIONS COMPRISING THE HETEROCYCLIC COMPOUND, AND METHODS OF USE THEREOF” (JS Innopharm (Shanghai) Ltd, priority 2019, published 2022).

T2 sequence (P35968 20-1356): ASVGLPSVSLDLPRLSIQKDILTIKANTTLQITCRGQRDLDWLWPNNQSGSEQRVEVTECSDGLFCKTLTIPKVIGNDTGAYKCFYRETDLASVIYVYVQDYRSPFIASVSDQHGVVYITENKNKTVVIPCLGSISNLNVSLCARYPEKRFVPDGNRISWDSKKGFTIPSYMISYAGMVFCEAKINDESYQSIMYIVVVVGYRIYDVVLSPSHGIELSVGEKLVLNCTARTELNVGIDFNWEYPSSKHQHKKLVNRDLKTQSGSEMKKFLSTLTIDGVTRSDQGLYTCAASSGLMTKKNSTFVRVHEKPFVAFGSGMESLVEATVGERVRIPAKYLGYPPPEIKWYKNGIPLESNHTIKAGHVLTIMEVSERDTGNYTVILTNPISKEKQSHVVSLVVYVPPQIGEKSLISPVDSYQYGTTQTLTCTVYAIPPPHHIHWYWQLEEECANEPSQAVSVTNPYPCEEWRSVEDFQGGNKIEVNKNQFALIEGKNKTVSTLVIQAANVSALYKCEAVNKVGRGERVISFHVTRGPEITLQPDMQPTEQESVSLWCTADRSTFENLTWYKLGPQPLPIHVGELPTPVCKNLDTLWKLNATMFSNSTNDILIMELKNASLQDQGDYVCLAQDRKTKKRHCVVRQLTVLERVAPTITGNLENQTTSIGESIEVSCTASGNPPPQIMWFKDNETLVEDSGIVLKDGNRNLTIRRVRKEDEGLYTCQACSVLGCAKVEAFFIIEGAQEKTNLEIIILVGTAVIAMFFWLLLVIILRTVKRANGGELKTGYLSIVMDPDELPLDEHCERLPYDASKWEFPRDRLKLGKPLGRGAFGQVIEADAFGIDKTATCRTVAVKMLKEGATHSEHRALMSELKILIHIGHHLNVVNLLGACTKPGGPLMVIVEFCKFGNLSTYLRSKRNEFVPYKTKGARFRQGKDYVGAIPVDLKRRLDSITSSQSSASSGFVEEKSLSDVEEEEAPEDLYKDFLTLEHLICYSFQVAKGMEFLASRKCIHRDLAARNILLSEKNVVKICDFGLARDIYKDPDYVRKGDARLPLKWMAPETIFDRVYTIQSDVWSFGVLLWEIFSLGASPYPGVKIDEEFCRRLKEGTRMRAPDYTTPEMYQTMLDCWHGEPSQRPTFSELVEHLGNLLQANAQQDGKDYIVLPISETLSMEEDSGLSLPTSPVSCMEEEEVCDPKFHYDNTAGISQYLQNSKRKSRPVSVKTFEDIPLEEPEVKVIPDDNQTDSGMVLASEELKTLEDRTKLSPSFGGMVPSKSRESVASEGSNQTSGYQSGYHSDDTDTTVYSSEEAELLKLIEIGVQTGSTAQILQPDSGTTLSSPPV
T1 sequence (P07949 29-1114): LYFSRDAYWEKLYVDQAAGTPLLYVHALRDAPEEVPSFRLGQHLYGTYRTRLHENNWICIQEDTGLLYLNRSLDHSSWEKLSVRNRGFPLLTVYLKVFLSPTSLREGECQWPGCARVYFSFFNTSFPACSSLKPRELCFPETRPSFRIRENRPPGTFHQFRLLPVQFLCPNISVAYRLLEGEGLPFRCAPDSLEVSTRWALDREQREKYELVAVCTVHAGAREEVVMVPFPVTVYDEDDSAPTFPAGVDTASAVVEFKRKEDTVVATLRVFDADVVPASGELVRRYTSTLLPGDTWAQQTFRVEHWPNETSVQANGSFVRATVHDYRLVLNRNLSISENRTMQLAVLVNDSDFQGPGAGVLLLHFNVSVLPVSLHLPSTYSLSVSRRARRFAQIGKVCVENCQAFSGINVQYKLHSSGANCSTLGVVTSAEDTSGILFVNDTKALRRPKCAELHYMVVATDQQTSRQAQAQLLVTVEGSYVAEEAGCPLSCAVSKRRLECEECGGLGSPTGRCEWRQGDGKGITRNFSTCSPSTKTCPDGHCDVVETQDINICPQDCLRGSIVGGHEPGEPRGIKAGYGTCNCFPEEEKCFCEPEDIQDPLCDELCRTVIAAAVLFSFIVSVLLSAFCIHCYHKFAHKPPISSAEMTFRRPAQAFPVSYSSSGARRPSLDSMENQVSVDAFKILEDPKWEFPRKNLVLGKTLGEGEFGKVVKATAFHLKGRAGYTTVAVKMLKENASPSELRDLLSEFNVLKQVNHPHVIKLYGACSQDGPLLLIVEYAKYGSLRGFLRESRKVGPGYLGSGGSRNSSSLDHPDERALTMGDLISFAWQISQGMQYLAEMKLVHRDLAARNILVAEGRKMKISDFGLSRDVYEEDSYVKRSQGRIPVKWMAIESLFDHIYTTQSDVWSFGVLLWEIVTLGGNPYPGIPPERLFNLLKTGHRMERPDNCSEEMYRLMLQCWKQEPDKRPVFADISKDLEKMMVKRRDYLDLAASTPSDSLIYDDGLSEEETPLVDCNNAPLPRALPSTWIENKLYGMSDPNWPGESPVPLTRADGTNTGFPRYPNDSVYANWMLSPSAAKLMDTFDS

For the compound `Cn1ccc(-c2cc(-c3cnc(N4C[C@@H]5C[C@@](C)(NC(=O)c6ncccc6F)C[C@@H]5C4)cn3)c3c(C#N)cnn3c2)n1` [Example 140, N-((3aR,5s,6aS)-2-(5-(3-cyano-6-(1-methyl-1H-pyrazol-3-yl)pyrazolo[1,5-a]pyridin-4-yl)pyrazin-2-yl)-5-methyloctahydrocyclopenta[c]pyrrol-5-yl)-3-fluoropicolinamide], the IC50 against human RET kinase was not above 10 nM; against human KDR kinase it was 10 to 50 nM; with TT cells it was 10 to 50 nM.

As for `Cn1cc(-c2cc(-c3ccc(N4C[C@@H]5[C@H](C4)[C@H]5NC(=O)c4c(F)cccc4Cl)nc3)c3c(C#N)cnn3c2)cn1` [Example 24, 2-chloro-N-((1R,5S,6s)-3-(5-(3-cyano-6-(1-methyl-1H-pyrazol-4-yl)pyrazolo[1,5-a]pyridin-4-yl)pyridin-2-yl)-3-azabicyclo[3.1.0]hexan-6-yl)-6-fluorobenzamide], the IC50 was not above 10 nM at human RET kinase, not above 10 nM at human KDR kinase and 10 to 50 nM with TT cells.

For `COc1ccc(C(=O)N[C@]2(C)C[C@H]3CN(c4ccc(-c5cc(-c6cnn(C)c6)cn6ncc(C#N)c56)cn4)C[C@H]3C2)cn1` [Example 58, N-((3aR,5s,6aS)-2-(5-(3-cyano-6-(1-methyl-1H-pyrazol-4-yl)pyrazolo[1,5-a]pyridin-4-yl)pyridin-2-yl)-5-methyloctahydro-cyclopenta[c]pyrrol-5-yl)-6-methoxy-nicotinamide], the IC50 at human RET kinase is not above 10 nM; on human KDR kinase, not above 10 nM; with TT cells, 10 to 50 nM.

With `CC(C)(O)COc1cc(-c2ccc(N3C[C@@H]4C[C@@](C)(NS(=O)(=O)c5c(F)cccc5Cl)C[C@@H]4C3)nc2)c2c(C#N)cnn2c1` [Example 197, 2-chloro-N-((3aR,5s,6aS)-2-(5-(3-cyano-6-(2-hydroxy-2-methylpropoxy)pyrazolo[1,5-a]pyridin-4-yl)pyridin-2-yl)-5-methyloctahydrocyclopenta[c]pyrrol-5-yl)-6-fluorobenzenesulfonamide], the IC50 against human RET kinase was not above 10 nM; against human KDR kinase, 10 to 50 nM; in the assay with TT cells it was 10 to 50 nM.

Consider `CC(C)C(O)C(=O)NC12CC3CC(C1)N(c1ccc(-c4cc(OCC(C)(C)O)cn5ncc(C#N)c45)cn1)C(C3)C2` [Example 99, N-((1R,3 S,5s,7s)-2-(5-(3-cyano-6-(2-hydroxy-2-methylpropoxy)pyrazolo[1,5-a]pyridin-4-yl)pyridin-2-yl)-2-azaadamantan-5-yl)-2-hydroxy-3-methylbutanamide], for which the IC50 on human RET kinase is not above 10 nM; against human KDR kinase, 10 to 50 nM; in the assay on TT cells it was 10 to 50 nM.

Regarding `COc1ccc(CN2C[C@@H]3CN(c4ccc(-c5cc(OCC(C)(C)O)cn6ncc(C#N)c56)cn4)C[C@@H]3C2)cn1` [Example 14, 6-(2-hydroxy-2-methylpropoxy)-4-(6-((3aR,6aS)-5-((6-methoxypyridin-3-yl)methyl)hexahydropyrrolo[3,4-c]pyrrol-2(1H)-yl)pyridin-3-yl)pyrazolo[1,5-a]pyridine-3-carbonitrile], the IC50 against human RET kinase was not above 10 nM; against human KDR kinase it was more than 100 nM; in the assay with TT cells it was 10 to 50 nM.

Turning to `CC(C)C(=O)N1C[C@@H]2CN(c3ccc(-c4cc(-c5cnn(C)c5)cn5ncc(C#N)c45)cn3)C[C@@H]2C1` [Example 10, 4-(6-((3aR,6aS)-5-isobutyrylhexahydropyrrolo[3,4-c]pyrrol-2(1H)-yl)pyridin-3-yl)-6-(1-methyl-1H-pyrazol-4-yl)pyrazolo[1,5-a]pyridine-3-carbonitrile], the IC50 against human RET kinase is not above 10 nM; against human KDR kinase, 10 to 50 nM; in the assay on TT cells it was 10 to 50 nM.

Consider `CCOc1cc(-c2ccc(N3C[C@@H]4C[C@@](C)(NC(=O)c5ncccc5Cl)C[C@@H]4C3)nc2)c2c(C#N)cnn2c1` [Example 51, 3-chloro-N-((3aR,5s,6aS)-2-(5-(3-cyano-6-ethoxypyrazolo[1,5-a]pyridin-4-yl)pyridin-2-yl)-5-methyloctahydrocyclopenta[c]pyrrol-5-yl)picolinamide], for which the IC50 against human KDR kinase and in the assay with TT cells was 10 to 50 nM each time.

As to `CCOc1cc(-c2ccc(N3C[C@H]4C[C@@H](NC(=O)c5ncccc5Cl)C[C@H]4C3)nc2)c2c(C#N)cnn2c1` [Example 48, 3-chloro-N-((3aR,5r,6aS)-2-(5-(3-cyano-6-ethoxypyrazolo[1,5-a]pyridin-4-yl)pyridin-2-yl)octahydrocyclopenta[c]pyrrol-5-yl)picolinamide], the IC50 at human KDR kinase was 10 to 50 nM; in the assay with TT cells, not above 10 nM.

On to `CCOc1cc(-c2ccc(N3C[C@@H]4[C@H](C3)[C@@H]4NC(=O)c3ncccc3Cl)nc2)c2c(C#N)cnn2c1` [Example 43, 3-chloro-N-((1R,5S,6r)-3-(5-(3-cyano-6-ethoxypyrazolo[1,5-a]pyridin-4-yl)pyridin-2-yl)-3-azabicyclo[3.1.0]hexan-6-yl)picolinamide], for which the IC50 against human KDR kinase and in the assay with TT cells was more than 100 nM in each case.

Take `CCOc1cc(-c2ccc(N3C[C@@H]4[C@H](C3)[C@H]4NC(=O)c3ncccc3Cl)nc2)c2c(C#N)cnn2c1` [Example 38, 3-chloro-N-((1R,5S,6s)-3-(5-(3-cyano-6-ethoxypyrazolo[1,5-a]pyridin-4-yl)pyridin-2-yl)-3-azabicyclo[3.1.0]hexan-6-yl)picolinamide]: the IC50 on human KDR kinase and in the assay with TT cells was more than 100 nM in each case.

With `CCOc1cc(-c2ccc(N3C[C@@H]4[C@@H](CNC(=O)c5ncccc5Cl)[C@@H]4C3)nc2)c2c(C#N)cnn2c1` [Example 94, 3-chloro-N-(((1R,5S,6s)-3-(5-(3-cyano-6-ethoxypyrazolo[1,5-a]pyridin-4-yl)pyridin-2-yl)-3-azabicyclo[3.1.0]hexan-6-yl)methyl)picolinamide], the IC50 on human KDR kinase is 50 to 100 nM; with TT cells, 10 to 50 nM.

On to `CCOc1cc(-c2ccc(N3C[C@H]4C[C@H](NC(=O)c5ncccc5Cl)C[C@H]4C3)nc2)c2c(C#N)cnn2c1` [Example 49, 3-chloro-N-((3aR,5s,6aS)-2-(5-(3-cyano-6-ethoxypyrazolo[1,5-a]pyridin-4-yl)pyridin-2-yl)octahydrocyclopenta[c]pyrrol-5-yl)picolinamide], for which the IC50 at human KDR kinase and in the assay on TT cells was 10 to 50 nM throughout.
